Patent publication US20220249511A1, “METHODS FOR THE TREATMENT OF KELOID, HYPERTROPHIC SCARS AND/OR HYPERPIGMENTATION DISORDERS” (INSERM (INSTITUT NATIONAL DE LA SANTÉ ET DE LA RECHERCHE …, priority 2019, published 2022)

Columns and labels:
[1] = test system: primary fibroblasts derived from pathological scars; assay: Proliferation of primary fibroblasts derived from pathological scars; assay type: cell-based, human; settings: exposed 24 h, vs DMSO, FIG. 3B
Method: (§1) Paraffin-embedded kidney sections (4-um) were incubated with anti-P-AKT (Ser473) antibody (Cell Signaling Technology, ref# 4060), anti-P-S6RP antibody (Cell Signaling Technology, ref# 5364), anti-a-smooth muscle cell antibody (Sigma Aldrich, ref# A5228), and anti-KI67 antibody (Thermo Fisher Scientific, ref# RM-9106-51) Immunofluorescence studies were analyzed using a Zeiss LSM 700 confocal microscope.
(§2) Skin samples (hypertrophic, keloids and burn scars) were collected during surgical procedures. To generate dermal fibroblast cultures, skin samples were minced and incubated at room temperature in 0.05% trypsin-EDTA (ThermoFisher) solution for 30 min with gentle shaking. Cells were collected by centrifuging at 700 g for 10 min, resuspended in cell culture media containing 25% FBS, and plated onto 24 well plates to establish lines. Fibroblast cultures were grown and maintained in 1× MEM (Corning) supplemented with 25% FBS and penicillin/streptomycin (Corning) to a final concentration of 100 IU penicillin and 500 μg.mL-1 streptomycin.
(§3) Cells at similar population doubling were plated 1:4 from confluent cultures and allowed to grow until ˜80% confluent. Cells were then starved during 12 hours and exposed during 24 h to either BYL719 (0.1 or 1 μmol.L-1; MedChem Express), taselisib (0.1 or 2. μmol.L-1; MedChem Express) or miransertib (0.1 or […]) or equal volume of DMSO. We also performed ex vivo keloid scars culture. Keloids were exposed during 24h to either BYL719 (0.1 or 1 μmol.L-1; MedChem Express) or equal volume of DMSO.

[2] = test system: AKT/mTOR pathway; assay: Western blot of ex vivo keloid scars culture; assay type: cell-based, human; settings: ex vivo keloids exposed 24h to 0.1 or 1 μmol.L-1, vs DMSO; FIG. 3D
Method: as §3
Western blots were performed as previously described^31. Briefly, protein extracts from the scars and primary culture of fibroblasts were resolved by SDS-PAGE before being transferred onto the appropriate membrane and incubated with anti-P-AKT (Ser473) antibody (Cell Signaling Technology, ref# 4060), anti-P-S6RP antibody (Cell Signaling Technology, ref# 5364) and anti-GAPDH (Merck Millipore, ref#374), followed by the appropriate peroxidase-conjugated secondary antibody. Chemiluminescence was acquired using a Fusion FX7 camera (Vilbert Lourmat) and densitometry was performed using the Bio1D software (Certain Tech).

[3] = test system: Tgfβ mRNA; assay: Tgfβ mRNA expression in ex vivo keloid scars culture; assay type: cell-based, human; settings: ex vivo keloids exposed 24h to 0.1 or 1 μmol.L-1, vs DMSO; FIG. 3F
Method: as §3
(§4) Total RNA was isolated from snap-frozen kidneys using the TRIzol reagent (Sigma) according to the manufacture's protocol. First-strand cDNA was synthesized using the MML-V reverse transcriptase (Promega, USA). Real-time PCR was performed using the iQ-SYBR Green supermix (BioRad) and the iQ5 Multicolor Real-Time PCR Detection System (BioRad) for mRNA detection. 18S rRNA was used as a house keeping gene.

[4] = test system: AKT/mTOR pathway; assay: Western blot of P-AKT and P-S6RP in primary fibroblasts derived from pathological scars; assay type: cell-based, human; settings: starved 12 hours, exposed 24 h, vs DMSO, FIG. 3A
Method: as §2, §3
Cultures were rinsed with 1X PBS, treated for 10 min with 0.05% Trypsin, collected by centrifugation at 4° C., and pellets were flash frozen on dry ice. Protein lysates were collected by directly adding 1× RIPA buffer containing protease and phosphatase inhibitors. Each experiment was performed in duplicate and repeated at least three times
Western blots were performed as previously described^31. Briefly, protein extracts from the scars and primary culture of fibroblasts were resolved by SDS-PAGE before being transferred onto the appropriate membrane and incubated with anti-P-AKT (Ser473) antibody (Cell Signaling Technology, ref# 4060), anti-P-S6RP antibody (Cell Signaling Technology, ref# 5364) and anti-GAPDH (Merck Millipore, ref#374), followed by the appropriate peroxidase-conjugated secondary antibody. […]

[5] = test system: Tgfβ mRNA; assay: Tgfβ mRNA expression in primary fibroblasts derived from pathological scars; assay type: cell-based, human; settings: exposed 24 h, vs DMSO, FIG. 3C
Method: as §2, §3, §4

[6] = test system: keloids; assay: Proliferation rate in ex vivo keloid scars culture; assay type: cell-based, human; settings: ex vivo keloids exposed 24h to 0.1 or 1 μmol.L-1, vs DMSO; FIG. 3E
Method: as §1, §3

[7] = test system: hypertrophic and keloids scars; assay: Cohort of PROS patients treated with oral BYL719: hypertrophic and keloid scars; assay type: in vivo, human; settings: daily dose of 250 mg in adults or 50 mg in children, FIG. 1
Method: (§5) The cohort is composed by 19 patients including 15 children (ranging from 4 to 50 years old). Children received 50 mg daily while adults received 250 mg daily. BYL719 was delivered orally every morning with breakfast. Patients were followed at regular intervals:
(§6) weekly for 8 weeks, every two weeks for 1 month and then monthly. All patients underwent clinical examination, and areas of overgrowth, nevi as well as visible scars were photographed before and after BYL719 introduction. All pictures were taken by a single operator, always using the same camera (12-megapixel camera), in the same room and at the same distance. […] Length and surface of the scars were measured using Image J.

[8] = test system: burn scar; assay: PROS patient treated with oral BYL719: burn scar; assay type: in vivo, human; settings: one PROS patient with a large burn scar on the left thigh, FIG. 2
Method: as §5, §6

[9] = test system: nevi; assay: Cohort of PROS patients treated with oral BYL719: nevus color (visual scale); assay type: in vivo, human; settings: arbitrary visual scale 5: dark color to 1: normal skin color, FIG. 1
Method: as §5, §6
As shown on FIG. 1, inventors have observed that during treatment with oral BYL719, the length, the area and the thickness of the different scars were dramatically reducing without additional treatment. […] Nevus color was evaluated using an arbitrary visual scale ranging from (5: dark color to 1: normal skin color).

Compound | proliferation [1] | AKT/mTOR pathway (Western blot) [2] | Tgfβ mRNA expression [3] | AKT/mTOR pathway (P-AKT and P-S6RP in WB) [4] | mRNA expression of Tgfβ, a marker of fibrosis [5] | proliferation rate [6] | length of the hypertrophic and keloids scars [7] | surface area of the hypertrophic and keloids scars [7] | thickness of the hypertrophic and keloids scars [7] | size of the burn scar [8] | nevus color [9]
Cc1nc(NC(=O)N2CCC[C@H]2C(N)=O)sc1-c1ccnc(C(C)(C)C(F)(F)F)c1 [BYL719, Alpelisib] | reduced | inhibits | reduce | efficiently block | reduced | reduce | progressive improvement | progressive improvement | progressive improvement | reduction in size | spontaneously decolorating
Nc1ncccc1-c1nc2ccc(-c3ccccc3)nc2n1-c1ccc(C2(N)CCC2)cc1 [miransertib, Miransertib] | reduced |  |  | efficiently block | reduced |  |  |  |  |  | 
Cc1nc(-c2cn3c(n2)-c2ccc(-c4cnn(C(C)(C)C(N)=O)c4)cc2OCC3)n(C(C)C)n1 [taselisib, Taselisib] | reduced |  |  | efficiently block | reduced |  |  |  |  |  | 
